Results on one compound are retold here after publication PMC11567856, “A novel peptide‐based tau aggregation inhibitor as a potential therapeutic for Alzheimer's disease and other tauopathies” (Alzheimer's & Dementia, 2024).

The target of data set [1] is T1, Tau^Δ1‐250 (Homo sapiens, UniProt P10636).
T1 construct: Tau^Δ1‐250 (an aggregate prone truncated version of full‐length Tau); made in house; host or cells: E. coli BL21(DE3)
The experiment in a line: ThT fluorescence, heparin-induced aggregation of Tau^Δ1‐250. The data set is classed as biochemical. The method, then:
(§1) Fluorescence was measured (λex = 442 nm, λem = 483 nm), and data were normalized. […] The addition of inhibitor to the growth phase was controlled by adding an equivalent volume of buffer alone.
Experiments were conducted in triplicate and error bars were reported as standard deviation. Statistical analysis: p > 0.05, *p ≤ 0.05, **p ≤ 0.01, ***p ≤ 0.001.

The test system of data set [2] is HEK‐293 cells.
Procedure: (B) LDH cytotoxicity assay using varying concentrations of RI‐AG03 co‐incubated with HEK‐293 cells. LDH Cytotoxicity (%) denotes lysed cells. Cells were seeded to a 96‐well plate at 10,000 cells/100 µL per well. […] Experiments were conducted in triplicate.
In data set [3] the target is T2, Tau^2N4R (Homo sapiens, UniProt P10636).
T2 construct: and full‐length Tau (Tau^2N4R); made in house; host or cells: E. coli BL21
In words: ThT fluorescence end-point, heparin-induced aggregation of Tau^2N4R. The data set is classed as biochemical. The method, then: as §1
FIGURE 3 Lead peptide RI‐AG03 dose‐response and target specificity. […] (C) Concentration‐dependent inhibition of by Tau^Δ1‐250 by RI‐AG03. […] (E) Concentration‐dependent inhibition of by Tau^2N4R by RI‐AG03. […] (F) log10 scatter graph of Tau^2N4R inhibition by RI‐AG03 employing a curve fitting algorithm to calculate the IC50 at 5 µM. Experiments were conducted in triplicate and error bars were reported as standard deviation. One factor repeated measures ANOVA + Tukey post hoc statistical analysis: p > 0.05, *p ≤ 0.05, **p ≤ 0.01, ***p ≤ 0.001.

Data set [4] has as its system Elav/hTau^2N4R flies. In words: Drosophila survival assay, hTau^2N4R pan-neuronal. The format is in vivo, Drosophila melanogaster. Set-up: unit of the concentration uncertain. How it is done:
Drosophila survival assays: Elav‐GAL4 (BDSC_458) female flies were crossed with male UAS‐Tau^2N4R flies or with gender‐matched Oregon‐R (WT) flies. Survival of 10 cohorts of 10 male flies expressing hTau^2N4R pan‐neurally and reared on a diet containing 0.08 or 0.8 µM RI‐AG03 was assessed as previously described.[49] Statistics and reproducibility: Data were collected in ≥triplicate and expressed as mean ± standard error of the mean. […] This test analyzed outcomes related to the treatment effects of peptide inhibitors against Tau aggregation at multiple time points, controlling for individual variability and ensuring that changes observed were significant. For the Drosophila survival data, a Kaplan–Meier survival curve was plotted, and a Log‐rank (Mantel–Cox) test was performed on the data using GraphPad Prism software[49] This test analyzed survival outcomes by comparing survival distribution between groups, without assuming a specific distribution for survival times. AFM data were analyzed by unpaired t‐test with Welch's correction as we made the assumption, from previous similar studies, that the two populations (Tau enriched preps isolated from flies fed or not fed RI‐AG03) had the […].

Data set [5] has as its target T1, Tau^Δ1‐250. In words: Seeded Tau^Δ1‐250 aggregation with preformed filaments, no heparin. As to conditions: Tau monomers incubated with preformed Tau^Δ1‐250 filaments, no heparin (Figure S10). The format is biochemical.
In data set [6] the test system is Drosophila expressing hTau^2N4R in retinal photoreceptors. The experiment in a line: Drosophila eye experiments (GMR‐hTau^2N4R rough eye, eye size). The format is in vivo, Drosophila melanogaster. How it is done: Drosophila eye experiments: UAS-Tau^2N4R flies (BDSC_51363) were recombined to GMR-GAL4 (BDSC_8605) driver to generate stable GMR-hTau^2N4R lines (BDSC_51361). GMR-GAL4 was used as the “healthy” control. Progeny was reared on standard fly food supplemented with RI-AG03; 0.08, 0.8, 20, and 40 μM at 25°C. As controls, Tau, and driver-alone flies were incubated without the inhibitor. Freshly eclosed flies were monitored daily using a light microscope and 1-day-old live flies were imaged (n = 5/treatment) and processed on ImageJ to measure eye width. Ommaditial disorderliness quantification was done using Flynotyper ImageJ plugin.[48] Quantification of rough eye phenotype: Quantitative analysis of the total distance ommatidial disorderliness index of all stable ommatidia [Odld] was performed using the ImageJ plugin “Flynotyper.”[48] Analysis was performed using images taken by light microscope, and 150 ommatidia were considered and ranked by stability and distance to the center. Between four and five animals per genotype were analyzed. Scanning Electron Microscopy (SEM): Flies were euthanized, fixed in 2.5% glutaraldehyde in PBS, and had three 5-min washes in PBS. Samples were dehydrated for 30-min at each ethanol concentration: 50%, 70%, 80%, 90%, and 100%. Samples were transferred to hexamethyldisilazane for two 30-min changes, after which hexamethyldisilazane was sublimated overnight. […]

The nature of data set [7]: in vitro. As to conditions: isolated enzyme trypsin.
Procedure: 15% SDS PAGE gels of AG03 (100 µM) and RI-AG03 (100 µM) treated with and without equimolar
Trypsin concentration for 24-hours at 37 °C.

Each structure is given as a SMILES string. pIC50: −log10 of the molar value. Where a SMILES comes first, the peptide text is derived from it. [ ]: non-standard residue; d: D form.

T2 sequence (P10636 1-441 isoform P10636-8): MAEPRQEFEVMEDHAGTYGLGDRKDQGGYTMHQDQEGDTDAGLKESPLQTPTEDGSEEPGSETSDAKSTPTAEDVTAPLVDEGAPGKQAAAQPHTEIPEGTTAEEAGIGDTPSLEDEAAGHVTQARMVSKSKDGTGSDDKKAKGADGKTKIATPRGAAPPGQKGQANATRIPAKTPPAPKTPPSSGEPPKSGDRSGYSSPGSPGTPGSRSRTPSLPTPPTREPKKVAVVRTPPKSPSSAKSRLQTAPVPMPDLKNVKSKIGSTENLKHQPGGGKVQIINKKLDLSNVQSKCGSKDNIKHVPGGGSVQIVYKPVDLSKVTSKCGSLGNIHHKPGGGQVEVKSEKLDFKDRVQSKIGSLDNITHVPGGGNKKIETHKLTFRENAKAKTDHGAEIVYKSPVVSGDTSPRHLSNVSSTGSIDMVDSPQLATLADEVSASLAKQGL
T1 sequence (P10636 568-758, stated change not applied): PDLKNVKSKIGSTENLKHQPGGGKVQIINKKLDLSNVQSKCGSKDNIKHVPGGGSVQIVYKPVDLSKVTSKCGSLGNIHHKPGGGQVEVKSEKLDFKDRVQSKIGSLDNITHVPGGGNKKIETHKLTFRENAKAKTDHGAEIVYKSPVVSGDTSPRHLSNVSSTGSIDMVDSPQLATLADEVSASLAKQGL

By pIC50 is commonly meant the IC50 on a negative log10 scale, so that one unit is a factor of ten. `CC[C@@H](C)[C@@H](NC(=O)[C@@H](CCCCNC(C)=O)NC(=O)[C@@H](Cc1ccc(O)cc1)NC(=O)[C@@H](CCCCN)NC(=O)[C@H]1CCCN1C(=O)CNC(=O)[C@@H](CCCNC(=N)N)NC(=O)[C@@H](CCCNC(=N)N)NC(=O)[C@@H](CCCNC(=N)N)NC(=O)[C@@H](CCCNC(=N)N)NC(=O)[C@@H](CCCNC(=N)N)NC(=O)[C@@H](CCCNC(=N)N)NC(=O)[C@@H](CCCNC(=N)N)NC(=O)[C@@H](CCCNC(=N)N)NC(C)=O)C(=O)N[C@H](CCC(N)=O)C(=O)N[C@@H](C(=O)NCC(=O)N[C@H](CCCNC(=N)N)C(N)=O)C(C)C` [RI‐AG03] (Ac-[dR][dR][dR][dR][dR][dR][dR][dR]G[dP][dK][dY][dK](Ac)[dI][dQ][dV]G[dR]-NH2): the pIC50 in data set [1] was 5.11. Further, the “inhibition of Tau^Δ1‐250 aggregation” value in data set [1] (ThT end-point after 24 h, 37°C, 20 µM Tau^Δ1‐250, 20 µM peptide (equimolar), 5 µM heparin, 30 mM Tris, 1 mM DTT, 15 µM ThT, pH 7.4, triplicate) was around 94%. In addition, in data set [1] (ThT kinetics 12 h, 20 µM Tau^Δ1‐250, 20 µM RI‐AG03 added 1 h after aggregation was initiated), the “effect when added during the growth phase of Tau^Δ1‐250 aggregation” value is reported as “halted any further aggregation”. In data set [2], the “concentration at which toxicity begins to increase (LDH cytotoxicity)” value was 40 µM and the “doses found non‐toxic (LDH cytotoxicity)” value is “up to 30 µM”. Besides, the pIC50 in data set [3] is 5.30. In data set [3] (20 µM Tau^2N4R, 20 µM RI‐AG03 added after 24 h, read at 216 h, versus negative control), the “ThT signal at 9 days, peptide added after 24 h of Tau^2N4R aggregation” value is given as “reduction of ThT signal”. For the same compound, the “ThT signal at 9 days, peptide added after 72 h of Tau^2N4R aggregation” value in data set [3] (20 µM Tau^2N4R, 20 µM RI‐AG03 added after 72 h, read at 216 h, versus negative control) was “no reduction of ThT signal”. Moreover, the “median survival of hTau^2N4R flies, high dose” value in data set [4] (high‐dose (0.8 µM) in diet, pan‐neuronal hTau^2N4R male flies, untreated 26 days, n = 100, p < 0.0005) was 35 days. In data set [4] (high‐dose (0.8 µM) in diet, versus untreated 26 days, n = 100), the “improvement of median survival of hTau^2N4R flies, high dose” value was 35%. In data set [4] (low‐dose (0.08 µM) in diet, pan‐neuronal hTau^2N4R male flies, untreated 26 days, n = 100, p < 0.0005), the “median survival of hTau^2N4R flies, low dose” value was 33 days. Also, the “improvement of median survival of hTau^2N4R flies, low dose” value in data set [4] (low‐dose (0.08 µM) in diet, versus untreated 26 days, n = 100) is 27%. Moreover, the “effect on seeded Tau^Δ1‐250 aggregation in the absence of heparin” value in data set [5] was “demonstrated efficacy at inhibiting seeded Tau^Δ1‐250 aggregation”. Further, the “eye size of hTau^2N4R transgenics” value in data set [6] (GMR‐hTau^2N4R flies reared on food with 40 µM RI‐AG03, 25°C, versus untreated, n = 5/treatment) is reported as “significantly improved”. Further, the “ommatidial disorganization (Odld, Flynotyper)” value in data set [6] (GMR‐hTau^2N4R flies treated with RI‐AG03, n=4-5/condition) is recorded as “significantly improved”. This compound also yielded a metabolised at 24 h, 100 µM in data set [7] of 19%.
